Holding throughout (format): cell-based
Experiment [1] relates to HIV-1 NL 4.3. Description: HIV-1 replication in quiescent CD4 T cells (p24 Ag ELISA). The conditions noted are these: for anti-HIV activity in quiescent cells (in words) / HIV quiescent cells (percentage p24 compared to the untreated control): SPPs 10 μM; for anti-HIV activity in quiescent cells (in words): compared with HU 100 μM, HU+ddI or untreated control; for Antiviral activity in quiescent cells: class symbol, Table 6; for HIV quiescent cells (percentage p24 compared to the untreated control): quiescent CD4 T cells, day 10, HU 100 μM, HU 100 μM+ddI 2 μM. The method, then:
Unstimulated (quiescent/resting, day 0 to 5) human CD4 T-lymphocytes, obtained by magnetic bead separation from healthy, normal donors, were infected with HIV-1 NL 4.3. After five days in culture, cells were stimulated with PHA (5 μg/ml) to induce proliferation, and then, at day 7, IL-2 (20 U/ml) was added (stimulated, day 6 to 10). All available compounds were tested at a concentration of 10 μM. HU 100 μM and HU 100 μM+ddI 2 μM were also employed as comparators and the negative control was left untreated. At day 10, cells and supernatants were harvested and HIV-1 p24 Ag was measured by ELISA. HIV replication was expressed as percentage p24 compared to the untreated control.
For orientation: ELISA stands for enzyme-linked immunosorbent assay.

Experiment [2] has as its system primary human CD4 T-lymphocytes. In words: Apoptosis in primary CD4 T cells (Annexin V and 7-AAD staining). The settings on record: SPPs 10 μM; for apoptotic effect (in words): compared with HU 100 μM, HU+ddI or untreated control; for apoptosis %: total apoptotic events compared to untreated control, day 10, Imatinib 10 μM, HU 100 μM, ddI 2 μM. The method, then: (§1) Unstimulated (quiescent/resting, day 0 to 5) primary human CD4 T-lymphocytes were obtained by magnetic bead separation from healthy, normal donors. After five days in culture, cells were activated with PHA (5 μg/ml) to induce hyperproliferation then, at day 7, IL-2 (20 U/ml) was added (stimulated, day 6 to 10). All available compounds were tested at a concentration of 10 μM. […] At day 10, cells were harvested. Proliferation of T cells, cultured as described above, was studied by staining the cells with carboxyfluorescein diacetate-succinimidyl ester (CFSE) at day 0 (immediately after infection). For data analysis, the mitotic index (M) was used, calculating the sum of mitotic events at each proliferation cycle. To extract a relative number, M was normalized to the total number of cells acquired using the equation M=Σ[(Xn(T)−Xn(T)/2^n)], that gives the number of mitotic events from the experimentally obtained values of the proportion of T cells under each division peak n (Xn) and the total T cells (T). To study the effect of the compounds on apoptosis T cells were cultured as described above and at day 10 cells were stained with Annexin V and 7-AAD, in order to determine the percentage of total apoptotic events.
We determined the capacity of the compounds to affect the percentages of apoptotic events after 10 days of treatment in primary CD4 T cells.

For experiment [3] the test system is unchanged. Description: Cell hyperproliferation in primary T cells (CFSE staining, mitotic index). The conditions noted are these: for mitotic index %: % of not treated control (100%), day 10, HU 100 μM; for mitotic index % / anti-proliferative activity (in words): SPPs 10 μM, Imatinib 10 μM; for anti-proliferative activity (in words): compared with HU 100 μM, HU+ddI or untreated control; for Anti-proliferative capacity: class symbol, Table 6. The method, then:
We built up an experimental model using primary T cells to study the activity of the compounds on induced hyperproliferation of cells, which is a characteristic of both chronic viral diseases and cancer including HIV and leukemia.
as §1

In experiment [4] the test system is HIV-1 NL 4.3. In words: HIV-1 replication in activated T cells (PBMC, p24 Ag ELISA). The conditions noted are these: for anti-HIV activity in activated T cells (in words): SPPs 10 μM, compared with HU 100 μM, HU+ddI or untreated control; for HIV activated cells (% p24 compared to not treated control): activated T cells, 7 days, SPPs and Imatinib 10 μM, HU 100 μM, ddI 2 μM; for Antiviral activity in activated cells: class symbol, Table 6. The method, then:
The experimental setup described below allows us to detect direct antiviral activity of a compound.
Human PBMC, obtained from healthy, normal donors, were stimulated for two days with PHA 5 μg/ml. Then cells were infected with HIV-1 NL 4.3, IL-2 was added (20 U/ml), cells were plated (10^5 cells per well in 200 μl) and drug treatment started. […] The control was left untreated. After 7 days of incubation at 37° C. supernatants were harvested and HIV-1 p24 Ag was measured by ELISA.

The record followed here is US20120022048A1, “Anti-proliferative substituted pyrazolo[3,4-d]pyrimidines derivatives (SPP) to inhibit immune activation, virus replication and tumor growth” (priority 2010, published 2012).

SMILES strings stand for the structures.

`CSc1nc(NCCc2cccc(Cl)c2)c2cnn(CC(Cl)c3ccccc3)c2n1` (centres unmarked) [VS1-028]: in experiment [1], the “anti-HIV activity in quiescent cells (in words)” value is reported as “good anti-HIV activity”; the “Antiviral activity in quiescent cells” value was “+++ (excellent (+++, greater than 70% activity))”; the “HIV quiescent cells (percentage p24 compared to the untreated control)” value amounted to 4.4 ± 2.9%. Further, in experiment [2], the “apoptotic effect (in words)” value is “no more apoptotic than HU” and the apoptosis % is on record as 108.6 ± 30.8%. Moreover, in experiment [3], the mitotic index % was found to be 15.2 ± 15.7%; the “anti-proliferative activity (in words)” value is “good anti-proliferative capacity (superior to 100 μM HU)”; the Anti-proliferative capacity result is “+++ (excellent (+++, greater than 70% activity))”. Besides, in experiment [4], the “anti-HIV activity in activated T cells (in words)” value is recorded as “good anti-HIV activity”; the “HIV activated cells (% p24 compared to not treated control)” value was 25.7 ± 19.8%; the “Antiviral activity in activated cells” value was “+++ (excellent (+++, greater than 70% activity))”.

`CSc1nc(N2CCOCC2)c2cnn(CC(Cl)c3ccccc3)c2n1` (centres unmarked) [VS1-030]: the “HIV quiescent cells (percentage p24 compared to the untreated control)” value in experiment [1] amounted to 17.4 ± 10.8%. In experiment [2], the “apoptotic effect (in words)” value is “proapoptotic” and the apoptosis % is recorded as 174.4 ± 16.4%. In addition, in experiment [3], the mitotic index % stood at 15.5 ± 4.8%; the “anti-proliferative activity (in words)” value was “greater than 100 μM HU and 10 μM Imatinib”. In addition, in experiment [4], the “HIV activated cells (% p24 compared to not treated control)” value is given as 34.5 ± 13.4%.

As for `CCCNc1nc(SC)nc2c1cnn2CC(Cl)c1ccccc1` (centres unmarked) [VS1-031], in experiment [1], the “anti-HIV activity in quiescent cells (in words)” value is given as “effective against HIV”; the “Antiviral activity in quiescent cells” value was “+++ (excellent (+++, greater than 70% activity))”; the “HIV quiescent cells (percentage p24 compared to the untreated control)” value worked out at 19.1 ± 1.8%. In addition, in experiment [2], the “apoptotic effect (in words)” value was “did not induce apoptosis” and the apoptosis % was 114.4 ± 39.9%. Besides, in experiment [3], the mitotic index % is 23.9 ± 18.4%; the “anti-proliferative activity (in words)” value is on record as “greater or equal to that of 100 μM HU”; the Anti-proliferative capacity result is listed as “+++ (excellent (+++, greater than 70% activity))”. Further, in experiment [4], the “anti-HIV activity in activated T cells (in words)” value was “effective against HIV”; the “HIV activated cells (% p24 compared to not treated control)” value was found to be 31.6 ± 21.7%; the “Antiviral activity in activated cells” value is on record as “++ (good (++, 50 to 70% activity))”.

In the case of `CSc1nc(N2CCCCCC2)c2cnn(CC(Cl)c3ccccc3)c2n1` (centres unmarked) [VS1-034], the “HIV quiescent cells (percentage p24 compared to the untreated control)” value in experiment [1] is on record as 22.2 ± 7.0%. The same molecule yielded an apoptosis % in experiment [2] of 115.1 ± 34.5%. In experiment [3], the mitotic index % was 25.9 ± 12.9% and the “anti-proliferative activity (in words)” value is “comparable or even greater than HU”. In addition, in experiment [4], the “HIV activated cells (% p24 compared to not treated control)” value came to 65.0 ± 12.0%.

`CSc1nc(NCc2ccc(Cl)cc2)c2cnn(CC(Cl)c3ccccc3)c2n1` (centres unmarked) [VS1-035]: the “HIV quiescent cells (percentage p24 compared to the untreated control)” value in experiment [1] is reported as 24.0 ± 20.0%. Further, in experiment [2], the “apoptotic effect (in words)” value is given as “proapoptotic activity” and the apoptosis % is 161.0 ± 13.2%. Further, in experiment [3], the mitotic index % amounted to 33.8 ± 11.0% and the “anti-proliferative activity (in words)” value is reported as “good anti-proliferative activity, similar to HU”. Also, in experiment [4], the “HIV activated cells (% p24 compared to not treated control)” value turned out to be 49.5 ± 8.1%.

Regarding `CSc1nc(NCc2ccccc2Cl)c2cnn(CC(Cl)c3ccccc3)c2n1` (centres unmarked) [VS1-036], in experiment [1], the “anti-HIV activity in quiescent cells (in words)” value is given as “effective against HIV”; the “Antiviral activity in quiescent cells” value is reported as “+++ (excellent (+++, greater than 70% activity))”; the “HIV quiescent cells (percentage p24 compared to the untreated control)” value was 14.5 ± 4.0%. For the same molecule, in experiment [2], the “apoptotic effect (in words)” value was “did not induce apoptosis” and the apoptosis % was 139.3 ± 41.6%. Moreover, in experiment [3], the mitotic index % was 12.0 ± 6.4%; the “anti-proliferative activity (in words)” value is on record as “greater or equal to that of 100 μM HU”; the Anti-proliferative capacity result is “+++ (excellent (+++, greater than 70% activity))”. Also, in experiment [4], the “anti-HIV activity in activated T cells (in words)” value was “effective against HIV”; the “HIV activated cells (% p24 compared to not treated control)” value is recorded as 22.1 ± 5.7%; the “Antiviral activity in activated cells” value is listed as “+++ (excellent (+++, greater than 70% activity))”.
